The molecules below were run on non-Hodgkins lymphoma (assay: broad spectrum antibiotic cover in a non-Hodgkins lymphoma patient with mixed bacterial pneumonia). Settings: given together: Penicillin 1 million units three times a day i.m., chloramphenicol 1.25 g three times a day i.m., flagyl 400 mg three times a day orally; following one week.
Type: in vivo, human
From the text: If, on the other hand, a disease-associated organism is found within the body of a patient, which organism is classified as beneficial regarding a targeted disease (i.e., the activity of the organism is either causative or synergistic toward the disease), a therapeutic agent which is antagonistic toward such beneficial organism may be administered to the patient for aiding the patient's immune system in fighting against such causative or synergistic organism. Organisms have often been reported to exist in cancer patients both in tumor biopsies and in overt disease, in the treatment of a non-Hodgkins lymphoma patient suffering from mixed bacterial pneumonia, inventor prescribed broad spectrum antibiotic cover-Penicillin 1 million units three times a day, chloramphenicol 1.25 g three times a day, and flagyl 400 mg three times a day; the first two by intramuscular route and the flagyl orally.
Penicillin was tested, and the “change of cancerous lymph nodes” value was “cancerous lymph nodes shrank and softened”.
With Cc1ncc([N+](=O)[O-])n1CCO [flagyl] the “change of cancerous lymph nodes” value was “cancerous lymph nodes shrank and softened”.
For O=C(N[C@H](CO)[C@H](O)c1ccc([N+](=O)[O-])cc1)C(Cl)Cl [chloramphenicol], the “change of cancerous lymph nodes” value was “cancerous lymph nodes shrank and softened”.

From patent publication US20030103900A1, “Use of disease-associated organisms” (priority 2001, published 2003)
